Experimental data reported in publication PMC9105976, “A Novel β-Hairpin Peptide Z-d14CFR Enhances Multidrug-Resistant Bacterial Clearance in a Murine Model of Mastitis” (International Journal of Molecular Sciences, 2022).
Marks after values point to notes of the source that are not given here. No end group written: not given here.

Tests used:
[1] = tested on: Bacillus cereus CAU 202020; assay: MIC/MBC, microdilution broth method; type: cell-based; settings: Bacillus cereus CAU 202020 (MDR isolate)
Outline: (§1)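 Peptides were tested by microdilution against a 1 × 10^6 CFU/mL suspension in 10 mM PBS, each agent added at an equal volume within 0.001–2 mg/mL; ampicillin and gentamicin served as comparators.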

[2] = tested on: Escherichia coli ATCC25922; assay: MIC/MBC, microdilution broth method; type: cell-based; settings: Escherichia coli ATCC25922
Outline: as §1

[3] = tested on: Escherichia coli CAU 201919; assay: MIC/MBC, microdilution broth method; type: cell-based; settings: Escherichia coli CAU 201919 (MDR isolate)
Outline: as §1

[4] = tested on: Escherichia coli CAU 201920; assay: MIC/MBC, microdilution broth method; type: cell-based; settings: Escherichia coli CAU 201920 (MDR isolate)
Outline: as §1

[5] = tested on: Escherichia coli CVCC1450; assay: MIC/MBC, microdilution broth method; type: cell-based; settings: Escherichia coli CVCC1450
Outline: as §1

[6] = tested on: Klebsiella pneumoniae CAU202084; assay: MIC/MBC, microdilution broth method; type: cell-based; settings: Klebsiella pneumoniae CAU202084 (MDR isolate)
Outline: as §1

[7] = tested on: Proteus vulgaris CVCC1971; assay: MIC/MBC, microdilution broth method; type: cell-based; settings: Proteus vulgaris CVCC1971
Outline: as §1

[8] = tested on: Salmonella typhimurium ATCC14028; assay: MIC/MBC, microdilution broth method; type: cell-based; settings: Salmonella typhimurium ATCC14028
Outline: as §1

[9] = tested on: Staphylococcus aureus ATCC29213; assay: MIC/MBC, microdilution broth method; type: cell-based; settings: Staphylococcus aureus ATCC29213
Outline: as §1

[10] = tested on: Staphylococcus haemolyticus CAU202078; assay: MIC/MBC, microdilution broth method; type: cell-based; settings: Staphylococcus haemolyticus CAU202078 (MDR isolate)
Outline: as §1

[11] = tested on: Streptococcus suis CVCC3307; assay: MIC/MBC, microdilution broth method; type: cell-based; settings: Streptococcus suis CVCC3307
Outline: as §1

MRSA ATCC33591 = assay: MIC/MBC, microdilution broth method; type: cell-based, S. aureus
Outline: as §1

[12] = tested on: Gram-positive and Gram-negative bacteria; assay: Antimicrobial activity, statements over the bacterial panel; type: cell-based; settings: data not shown
Protocol: The MIC of peptides against bacteria was carried out by the microdilution broth method. The bacterial culture (OD 600 = 0.6) was diluted in 10 mM PBS to 1 × 10^6 CFU/mL. […]

[13] = Retention time of peptide in HPLC (hydrophobicity); type: physicochemical; settings: used as measure of hydrophobicity (order Z-d14CR > Z-d14CF > Z-d13 > Z-d14CFR > Z-d14C); column and gradient not given
[14] = 1 × 10^6 CFU/mL, 18 h at 37 °C, NA = no antimicrobial activity at 1 mg/mL
[15] = kills 99.9% bacteria, NA = no activity at 1 mg/mL
[16] = minimum concentration which kills 99.9% bacteria, NA = no activity at 1 mg/mL

For “GGYCNSKSVCVCR-NH2 (disulfide (positions not given here)) [Z-d13, Z. atratus defensin β-sheet region analogue, …-NH2]”, the MIC [1, 14] was “NA (NA) (No antimicrobial activity at 1 mg/mL)”, the MBC [1, 15] was “NA (NA) (No antimicrobial activity at 1 mg/mL)” and the MIC [2, 14] was “NA (NA) ^c (No antimicrobial activity at 1 mg/mL)”. For the same substance, the MBC [2, 16] was “NA (NA) ^c (No antimicrobial activity at 1 mg/mL)”, the MIC [3, 14] was “NA (NA) (No antimicrobial activity at 1 mg/mL)” and the MBC [3, 15] was “NA (NA) (No antimicrobial activity at 1 mg/mL)”. For the same substance, the MIC [4, 14] was “NA (NA) (No antimicrobial activity at 1 mg/mL)”, the MBC [4, 15] was “NA (NA) (No antimicrobial activity at 1 mg/mL)” and the MIC [5, 14] was “NA (NA) (No antimicrobial activity at 1 mg/mL)”. For the same substance, the MBC [5, 16] was “NA (NA) (No antimicrobial activity at 1 mg/mL)”, the MIC [6, 14] was “NA (NA) (No antimicrobial activity at 1 mg/mL)” and the MBC [6, 15] was “NA (NA) (No antimicrobial activity at 1 mg/mL)”. The MIC [7, 14] was “NA (NA) (No antimicrobial activity at 1 mg/mL)”, the MBC [7, 15] was “NA (NA) (No antimicrobial activity at 1 mg/mL)” and the MIC [8, 14] was “NA (NA) (No antimicrobial activity at 1 mg/mL)”. The MBC [8, 15] was “NA (NA) (No antimicrobial activity at 1 mg/mL)”, the MIC [9, 14] was “NA (NA) (No antimicrobial activity at 1 mg/mL)” and the MBC [9, 15] was “NA (NA) (No antimicrobial activity at 1 mg/mL)”. For the same substance, the MIC [10, 14] was “NA (NA) (No antimicrobial activity at 1 mg/mL)”, the MBC [10, 15] was “NA (NA) (No antimicrobial activity at 1 mg/mL)” and the MIC [11, 14] was “NA (NA) (No antimicrobial activity at 1 mg/mL)”. The MBC [11, 15] was “NA (NA) (No antimicrobial activity at 1 mg/mL)”, the MIC (MRSA ATCC33591; MRSA (methicillin-resistant S. aureus) ATCC33591, 1 × 10^6 CFU/mL, 18 h at 37 °C, NA = no antimicrobial activity at 1 mg/mL) was “NA (NA) (No antimicrobial activity at 1 mg/mL)” and the MBC (MRSA ATCC33591; MRSA ATCC33591, kills 99.9% bacteria, NA = no activity at 1 mg/mL) was “NA (NA) (No antimicrobial activity at 1 mg/mL)”. For the same substance, the “activity against bacteria at 3 mg/mL” value [12] was “slight activity” and the “RT, retention time of peptide in HPLC” value [13] was 9.077 min.
